Source: patent US8343961B2, “Substituted heterocyclic compounds” (ArQule, Inc., priority 2009, dated 2013)

What was measured:
RET kinase = RET kinase (Homo sapiens, UniProt P07949); assay: RET Kinase Activity Assay; type: biochemical; conditions: read-out: Ret, % INH, at 30 uM
Protocol: The disclosed compounds were assayed for their ability to inhibit the activity of RET kinase. Nunc Maxwasorb plates were coated with streptavidin by overnight incubation with 100 μL per well of 1 μg/mL Streptavidin in DPBS. Prior to the start of the experiment, the plates were washed with TBST (3×200 μL) and blocked for at least 1 hour by adding 150 μL of 5% BSA/TBST. The plates were washed with TBST (3×200 […]) and left dry immediately before the capture step.
The test articles and controls (Staurosporine and Sutent) were prepared using the following assay buffer @ 3× desired final concentration (50 mM […], 0.02 mg/mL BSA, 10 mM MgCl2, 0.1 mM Na3VO4, 1 mM EGTA, 75 μM ATP0.01% NP-40, 2 mM DTT in 10% glycerol/water). In a reaction plate, were added rapidly 20 μL test article (or control) and 20 μL RET (0.25 ng/4 final concentration). The plate was incubated for 15 minutes. To the reaction plate was added 20 μL of Pyk-2 (0.25 ng/4 final concentration). The plate was incubated at room temperature for one hour.
From the reaction plate, 50 μL was transferred to the streptavidin coated plate. The capture plate was incubated at room temperature for 30 minutes then washed 6× with TBST. To the capture plate was added 100 μL/well of Cell Signaling anti-phospho tyrosine at a dilution of 1:3000 in 2% BSA/TBST. The plate was incubated for one hour at room temperature then washed 6× with TBST. To the capture plate was added 100 μL/well of Alkaline Phosphatase Tagged Goat anti Mouse Antibody at a dilution of 1:4000 in 2% BSA/TBST. The plate was incubated for one hour at room temperature then washed 6× with TBST. The fluorescent readout was initiated by the addition of 100 μL/well of Attophos reagent (6 mg/10 mL). The reading was done on the Perkin Elmer Envision system.

EphA8 = target: T1, EphA8 (Homo sapiens, UniProt P29322); assay: EphA8 Kinase Activity Assay; type: biochemical; conditions: read-out: EphA8, % INH, at 30 uM
T1 sequence (P29322 28-1005): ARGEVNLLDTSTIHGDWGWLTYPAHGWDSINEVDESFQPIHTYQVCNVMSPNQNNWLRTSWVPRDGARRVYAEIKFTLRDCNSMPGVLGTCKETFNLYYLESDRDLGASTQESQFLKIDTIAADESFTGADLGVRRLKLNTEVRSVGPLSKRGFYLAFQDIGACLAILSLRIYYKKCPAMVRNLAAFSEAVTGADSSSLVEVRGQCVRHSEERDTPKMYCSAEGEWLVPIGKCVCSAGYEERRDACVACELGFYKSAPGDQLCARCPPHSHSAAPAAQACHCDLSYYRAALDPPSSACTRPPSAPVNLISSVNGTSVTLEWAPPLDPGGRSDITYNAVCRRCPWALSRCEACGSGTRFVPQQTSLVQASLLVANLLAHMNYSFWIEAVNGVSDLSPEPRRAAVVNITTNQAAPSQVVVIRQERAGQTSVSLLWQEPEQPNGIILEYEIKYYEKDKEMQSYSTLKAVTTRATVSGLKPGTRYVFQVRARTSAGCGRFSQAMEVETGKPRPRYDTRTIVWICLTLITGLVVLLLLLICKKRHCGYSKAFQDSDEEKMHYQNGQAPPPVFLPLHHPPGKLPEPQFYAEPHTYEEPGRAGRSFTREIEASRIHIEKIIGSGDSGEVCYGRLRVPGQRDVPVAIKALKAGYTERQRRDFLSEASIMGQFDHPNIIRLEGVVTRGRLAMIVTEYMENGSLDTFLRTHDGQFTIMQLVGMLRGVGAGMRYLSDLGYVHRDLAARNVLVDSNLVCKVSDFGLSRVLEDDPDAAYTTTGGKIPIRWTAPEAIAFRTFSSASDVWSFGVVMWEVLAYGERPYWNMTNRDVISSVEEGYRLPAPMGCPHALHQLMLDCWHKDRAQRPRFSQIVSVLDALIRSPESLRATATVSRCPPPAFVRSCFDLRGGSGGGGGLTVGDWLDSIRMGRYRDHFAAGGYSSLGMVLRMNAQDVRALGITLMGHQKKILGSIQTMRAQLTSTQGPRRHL
Protocol: Nunc Maxisorb plates are coated with streptavidin by overnight incubation with 100 μL per well of 1 μg/ml Streptavidin in DPBS. Prior to the start of the experiment, the plates are washed with TBST (3×200 μL) and blocked for at least 1 hour by adding 150 μL of 5% BSA/TBST. The plates are washed with TBST (3×200 μL/well) and left dry immediately before the capture step.
The test articles and control (Staurosporine) are prepared using the following assay buffer @ 3× desired final concentration (50 mM Tris-HCl, 0.02 mg/ml BSA, 10 mM MgCl2, 0.1 mM Na3VO4, 1 mM EGTA, 12.5 μM ATP, 0.01% NP-40, 1 mM DTT in 10% glycerol/water). In a reaction plate are added rapidly 20 μl test article (or control) and 20 μl EphA8 (0.12 ng/μl final concentration). The plate is incubated for 15 minutes. To the reaction plate is added 20 μl of Pyk-2 (0.75 ng/μl final concentration). The plate is incubated at room temperature for one hour. From the reaction plate, 50 μl is transferred to the streptavidin coated plate. The capture plate is incubated at room temperature for 30 minutes, then washed 6× with TBST. To the capture plate is added 100 μL/well of Cell Signaling anti-phospho tyrosine at a dilution of 1:3000 in 2% BSA/TBST. The plate is incubated for one hour at room temperature then washed 6× with TBST. To the capture plate is added 100 μL/well of Alkaline Phosphatase Tagged Goat anti Mouse Antibody at a dilution of 1:4000 in 2% BSA/TBST. The plate is incubated for one hour at room temperature then washed 6× with TBST. The fluorescent readout is initiated by the addition of 100 μl/well of Attophos reagent (6 mg/10 mL). The reading is done on the Perkin Elmer Envision system.

Chain of RET kinase (P07949 29-1114): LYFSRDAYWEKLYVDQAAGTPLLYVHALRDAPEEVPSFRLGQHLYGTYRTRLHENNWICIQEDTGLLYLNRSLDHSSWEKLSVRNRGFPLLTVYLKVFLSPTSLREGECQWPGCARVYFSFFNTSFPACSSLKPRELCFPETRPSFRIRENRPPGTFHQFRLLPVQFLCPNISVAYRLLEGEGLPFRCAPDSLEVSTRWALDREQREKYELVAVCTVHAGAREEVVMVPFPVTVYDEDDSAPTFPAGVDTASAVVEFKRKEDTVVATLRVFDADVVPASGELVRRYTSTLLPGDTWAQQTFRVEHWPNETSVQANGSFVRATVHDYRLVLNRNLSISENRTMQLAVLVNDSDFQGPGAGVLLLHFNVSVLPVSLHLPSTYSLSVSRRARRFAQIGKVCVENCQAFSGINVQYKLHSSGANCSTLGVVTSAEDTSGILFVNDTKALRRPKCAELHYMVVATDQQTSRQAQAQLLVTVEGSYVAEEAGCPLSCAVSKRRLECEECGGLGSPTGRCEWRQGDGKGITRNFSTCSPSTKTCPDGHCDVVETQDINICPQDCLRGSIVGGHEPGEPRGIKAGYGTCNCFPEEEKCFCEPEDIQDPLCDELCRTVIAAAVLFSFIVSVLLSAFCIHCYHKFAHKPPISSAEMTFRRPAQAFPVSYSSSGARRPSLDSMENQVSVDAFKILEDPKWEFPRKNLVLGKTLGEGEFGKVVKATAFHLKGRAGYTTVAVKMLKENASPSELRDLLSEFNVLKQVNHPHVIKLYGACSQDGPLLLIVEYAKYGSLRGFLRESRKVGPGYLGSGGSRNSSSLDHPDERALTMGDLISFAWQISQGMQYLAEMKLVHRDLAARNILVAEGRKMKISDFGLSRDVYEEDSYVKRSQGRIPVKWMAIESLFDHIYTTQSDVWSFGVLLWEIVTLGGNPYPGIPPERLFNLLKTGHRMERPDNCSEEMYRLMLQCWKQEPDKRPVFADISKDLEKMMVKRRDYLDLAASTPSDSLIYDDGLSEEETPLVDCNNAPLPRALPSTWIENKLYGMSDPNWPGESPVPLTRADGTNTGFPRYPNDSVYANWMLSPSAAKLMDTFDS

Row | inhibition at 30 µM (RET kinase) [%] | inhibition at 30 µM (EphA8) [%] | SMILES
1 | 50 to 79 | < 50 | Nc1nc(N2CCN(Cc3ccc(F)cc3)c3ccccc3C2)c2nc[nH]c2n1 [Compound 15, 6-[1-(4-fluorobenzyl)-1,2,3,5-tetrahydro-4H-1,4-benzodiazepin-4-yl]-9H-purin-2-amine]
2 | < 50 | 50 to 79 | Nc1nc(N2CCN(Cc3ccc(F)cc3)c3ccccc3C2)c2cn[nH]c2n1 [Compound 16, 4-[1-(4-fluorobenzyl)-1,2,3,5-tetrahydro-4H-1,4-benzodiazepin-4-yl]-1H-pyrazolo[3,4-d]pyrimidin-6-amine]
3 | 50 to 79 | 50 to 79 | Nc1nc(N2CCN(Cc3cccc4ccccc34)c3ccccc3C2)c2nc[nH]c2n1 [Compound 17, 6-[1-(1-naphthylmethyl)-1,2,3,5-tetrahydro-4H-1,4-benzodiazepin-4-yl]-9H-purin-2-amine]
4 | < 50 | 50 to 79 | Nc1nc(N2CCN(Cc3cccc(C(F)(F)F)c3)c3ccccc3C2)c2nc[nH]c2n1 [Compound 20, 6-{1-[3-(trifluoromethyl)benzyl]-1,2,3,5-tetrahydro-4H-1,4-benzodiazepin-4-yl}-9H-purin-2-amine]
5 | < 50 | < 50 | Nc1nc(N2CCN(Cc3cccc(C(F)(F)F)c3)c3ccccc3C2)c2cn[nH]c2n1 [Compound 21, 4-{1-[3-(trifluoromethyl)benzyl]-1,2,3,5-tetrahydro-4H-1,4-benzodiazepin-4-yl}-1H-pyrazolo[3,4-d]pyrimidin-6-amine]
6 | < 50 | 50 to 79 | Nc1nc(N2CCN(Cc3ccc(Cl)cc3)c3ccccc3C2)c2cn[nH]c2n1 [Compound 23, 4-[1-(4-chlorobenzyl)-1,2,3,5-tetrahydro-4H-1,4-benzodiazepin-4-yl]-1H-pyrazolo[3,4-d]pyrimidin-6-amine]
7 | 50 to 79 | 50 to 79 | Nc1nc(N2CCN(Cc3cccc(Cl)c3)c3ccccc3C2)c2nc[nH]c2n1 [Compound 24, 6-[1-(3-chlorobenzyl)-1,2,3,5-tetrahydro-4H-1,4-benzodiazepin-4-yl]-9H-purin-2-amine]
8 | < 50 | < 50 | Nc1nc(N2CCN(Cc3cccc(Cl)c3)c3ccccc3C2)c2cn[nH]c2n1 [Compound 25, 4-[1-(3-chlorobenzyl)-1,2,3,5-tetrahydro-4H-1,4-benzodiazepin-4-yl]-1H-pyrazolo[3,4-d]pyrimidin-6-amine]
9 | 50 to 79 | < 50 | Cc1ccc(CN2CCN(c3nc(N)nc4[nH]cnc34)Cc3ccccc32)cc1 [Compound 26, 6-[1-(4-methylbenzyl)-1,2,3,5-tetrahydro-4H-1,4-benzodiazepin-4-yl]-9H-purin-2-amine]
10 | < 50 | < 50 | COc1ccc(CN2CCN(c3nc(N)nc4[nH]cnc34)Cc3ccccc32)cc1OC [Compound 27, 6-[1-(3,4-dimethoxybenzyl)-1,2,3,5-tetrahydro-4H-1,4-benzodiazepin-4-yl]-9H-purin-2-amine]
11 | < 50 | < 50 | COc1ccc(CN2CCN(c3nc(N)nc4[nH]ncc34)Cc3ccccc32)cc1OC [Compound 28, 4-[1-(3,4-dimethoxybenzyl)-1,2,3,5-tetrahydro-4H-1,4-benzodiazepin-4-yl]-1H-pyrazolo[3,4-d]pyrimidin-6-amine]
12 | < 50 | 50 to 79 | CC(C)(C)c1ccc(CN2CCN(c3nc(N)nc4[nH]cnc34)Cc3ccccc32)cc1 [Compound 29, 6-[1-(4-tert-butylbenzyl)-1,2,3,5-tetrahydro-4H-1,4-benzodiazepin-4-yl]-9H-purin-2-amine]
13 | 50 to 79 | < 50 | CC(C)(C)c1ccc(CN2CCN(c3nc(N)nc4[nH]ncc34)Cc3ccccc32)cc1 [Compound 30, 4-[1-(4-tert-butylbenzyl)-1,2,3,5-tetrahydro-4H-1,4-benzodiazepin-4-yl]-1H-pyrazolo[3,4-d]pyrimidin-6-amine]
14 | < 50 | < 50 | Nc1nc(N2CCN(Cc3ccc(Cl)cc3Cl)c3ccccc3C2)c2nc[nH]c2n1 [Compound 31, 6-[1-(2,4-dichlorobenzyl)-1,2,3,5-tetrahydro-4H-1,4-benzodiazepin-4-yl]-9H-purin-2-amine]
15 | < 50 | < 50 | Nc1nc(N2CCN(Cc3ccc(Cl)cc3Cl)c3ccccc3C2)c2cn[nH]c2n1 [Compound 32, 4-[1-(2,4-dichlorobenzyl)-1,2,3,5-tetrahydro-4H-1,4-benzodiazepin-4-yl]-1H-pyrazolo[3,4-d]pyrimidin-6-amine]
16 | 50 to 79 | < 50 | Cc1cccc(CN2CCN(c3nc(N)nc4[nH]cnc34)Cc3ccccc32)c1 [Compound 33, 6-[1-(3-methylbenzyl)-1,2,3,5-tetrahydro-4H-1,4-benzodiazepin-4-yl]-9H-purin-2-amine]
17 | < 50 | < 50 | Cc1cccc(CN2CCN(c3nc(N)nc4[nH]ncc34)Cc3ccccc32)c1 [Compound 34, 4-[1-(3-methylbenzyl)-1,2,3,5-tetrahydro-4H-1,4-benzodiazepin-4-yl]-1H-pyrazolo[3,4-d]pyrimidin-6-amine]
18 | < 50 | < 50 | COc1ccc(OC)c(CN2CCN(c3nc(N)nc4[nH]cnc34)Cc3ccccc32)c1 [Compound 35, 6-[1-(2,5-dimethoxybenzyl)-1,2,3,5-tetrahydro-4H-1,4-benzodiazepin-4-yl]-9H-purin-2-amine]
19 | < 50 | < 50 | COc1ccc(OC)c(CN2CCN(c3nc(N)nc4[nH]ncc34)Cc3ccccc32)c1 [Compound 36, 4-[1-(2,5-dimethoxybenzyl)-1,2,3,5-tetrahydro-4H-1,4-benzodiazepin-4-yl]-1H-pyrazolo[3,4-d]pyrimidin-6-amine]
20 | 50 to 79 | < 50 | Nc1nc(N2CCN(Cc3ccc(F)cc3F)c3ccccc3C2)c2nc[nH]c2n1 [Compound 37, 6-[1-(2,4-difluorobenzyl)-1,2,3,5-tetrahydro-4H-1,4-benzodiazepin-4-yl]-9H-purin-2-amine]
